Measured values taken from patent US8614246B2, “Indole derivatives for treating neurodegenerative diseases” (Centre National de la Recherche Scientifique (CNRS), priority 2009, dated 2013).

Legend:
[1] = system: reactive oxygen species (ROS) in neurones of ventral mesencephalon cultures; experiment: Cellular test with dihydrorhodamine 123 (DHR-123); assay type: cell-based, rat; settings: compounds 10 nM for eight days, 50 μM DHR-123 30 minutes; control = 100; Trolox at 10 μM per FIG. 1
Protocol: Dihydrorhodamine 123 or DHR123 is used as an indicator of reactive oxygen species (ROS). It is uncharged and not fluorescent and passes passively through the cellular membrane before being oxidised in contact with free radicals, into rhodamine 123 emitting green fluorescence.
The quantity of intracellular ROS is reduced when the cells are treated by an anti-oxidant. This reduction results in a quantifiable decay in emitted fluorescence in the presence of DHR123.
In order to conclude the role of the anti-oxidant capacity of compounds according to the invention in the observed neuroprotectrive activity, the cultures were placed strictly under the same conditions as for the neuroprotection/neuritogenesis test. Thus, the cultures were kept for eight days in the presence of a concentration of 10 nM of each of the tested tryptaminic derivatives. On the 8th day in vitro (DIV 8), 50 μM of DHR-123 (Sigma) was added and the cells were incubated for 30 minutes at 37° C. They were then washed three times, treated once again by compounds according to the invention and placed in a medium without any phenol red. Living fluorescent neurones that were immediately photographed can be observed, the fluorescence density per neurone being quantified under an inverted fluorescence microscope by an image analysis software.

[2] = system: dopaminergic neurons (TH+ neurons) in primary cultures of ventral mesencephalon; experiment: Neuritogenesis: total neuritic length per dopaminergic neuron in primary cultures of ventral mesencephalon; assay type: cell-based; settings: Product 10 nM, 8 days culture, rat embryo ventral mesencephalon; untreated control = 100
Protocol: (§1) Dissection. Dissection consists of extracting embryos from the uterus of a rat after fifteen days of gestation. The brain of each embryo is then dissected under magnifying binoculars in order to extract the ventral mesencephalus.
(§2) Seeding. Mesencephalons are grouped in a flask containing 2 mL of L15 medium and then mechanically dissociated (30 repeat operations), 5 mL of L15 medium are added. The suspension is allowed to stand for 8 minutes. The 5 mL float is then recovered in a new flask and the cells are dissociated again (30 repeat operations). 5 mL of L15 is added again and the suspension is left to stand for 8 minutes. The 5 mL float is added to the previous float. The cells thus extracted are then centrifuged for 5 minutes at 1000 rpm^−1. The cell sediment is dissolved in a Neurobasal medium supplemented with 1% of B27, 1% of glutamine and 1% of a mixture of penicillin and streptomycin. The cells are then seeded at an appropriate dilution (0.6 embryos per well in 24-well plates and 0.4 per well in 48-well plates). The cultures are incubated at 37° C. in a wet atmosphere enriched with 5% CO2 in 24-well or 48-well plates.
(§3) Treatment. After 24 hours, two-thirds of the medium in each well is replaced by a new medium enriched with the product to be tested at the appropriate dilution. The medium is replaced in the same way after 4 days of culture.
(§4) Immunohistochemistry. After 8 days culture, the cells are fixed by a solution of 4% formaldehyde and then washed three times with PBS. The cells are then submitted to anti-tyrosine hydroxylase (TH) immunohistochemistry, developed by a secondary antibody coupled to a fluorophore emitting in the red (Cy3).
(§5) Analyses. Neuroprotection is evaluated by counting positive TH neurons with 10 fields per well directly under an inverted fluorescence microscope, reported as a percentage of the untreated control. Experiments are done on three wells per condition. Three independent experiments are done under these conditions. The total neuritic length per cell is calculated using Explora Nova's Neurite Outgrowth software on 60 to 100 neurons photographed independently per condition.
(§6) Primary cultures of ventral mesencephalon of rat embryos after 15.5 days of gestation under conditions causing spontaneous death of dopaminergic neurons, are maintained in the presence or absence of the compounds to be tested for 8 days. After fixing, the cultures are submitted to immunocytochemistry directed against tyrosine hydroxylase, a specific marker of dopaminergic neurons.
Neuritogenesis is quantified by measuring the total neuritic length per dopaminergic neuron (neuritic length/TH^+ neuron) using an image analyser on a minimum of sixty photographed neurons per condition (10-30% of all dopaminergic neurons).
(§7) All experiments were done by comparison with a positive control, dibutyryl-AMP cyclic (db-AMPc) (Mourlevat S. et al. Mol. Pharmacol. 2003, 64 (3), 578-586).

[3] = system: dopaminergic neurons (TH+ neurons) in primary cultures of ventral mesencephalon; experiment: Neuroprotection: counting of remaining TH+ neurons in primary cultures of ventral mesencephalon (spontaneous death of dopaminergic neurons); assay type: cell-based; settings: Product 10 nM, 8 days culture, rat embryo ventral mesencephalon; untreated control = 100
Protocol: as §1, §2, §3, §4, §5, §6
The neuroprotective potential of each compound is then estimated by counting the number of remaining neurons (TH^+ neurons) under a fluorescence microscope. The results for the different treatments are expressed as a percentage of the number of neurons remaining relative to untreated cultures (Control).
as §7

[4] = Test with ABTS (anti-oxidant capacity, hydroxyl radicals generated by Fenton's reaction); assay type: biochemical; settings: 30 minutes at ambient temperature, range 10 nM to 1 mM, read-out: IC50 ± SEM (concentration at which 50% of hydroxyl radicals have been reduced) (converted)
Text: ABTS or 2,2′-azino-bis-(3-ethylbenzthiazoline-6-sulfonic) acid is a coloured indicator of the presence of hydroxyl radicals in solution. The attack of a hydroxyl radical on ABTS generates the formation of an ATBS^+. cation radical (Equation 1). This coloured entity makes the absorbance (Abs) of the solution equal to 450 nm. ABTS+HO. ? ABTS^+. +HO^− Equation 1
During the test, hydroxyl radicals are generated by Fenton's reaction in the presence of iron and hydrogen peroxide (Equation 2) H2O2+Fe^2+ ? HO. +HO^−+Fe^3+ Equation 2
When a radical trap or antioxidant is present in solution, competition with ABTS is set up for reduction of hydroxyl radicals, which reduces the absorbance (Abs) at 450 nm.
The percentage of hydroxyl radicals converted into hydroxyl ions (% conversion) by the compound of interest may be calculated using Formula 1: […]
The anti-oxidant capacity of a compound may then be expressed in the form of IC50 that reflects the concentration at which 50% of hydroxyl radicals have been reduced by the tested compound.
Thus, the compounds to be tested and Trolox® were solubilised in ethanol so as to obtain solutions at 1 mM. We used cascade dilutions to obtain a concentration range varying from 1 mM to 10 nM. 90 μL of a 1:1 water-ethanol mixture was then added onto an ELISA 96-well plate, followed by 15 μL of an aqueous solution of ABTS at 1 mM, 15 μL of an aqueous solution of Fe2SO4 at 0.5 mM, 15 μL of each compound to be tested at different concentrations, and then 15 μl of an aqueous solution of hydrogen peroxide at 100 mM. The mixtures thus obtained were stirred at ambient temperature sheltered from air for 30 minutes, and the value of the absorbance at […] was then measured. The capacity of each compound to reduce hydroxyl radicals is determined by the reduction in absorbance at 450 nm, the control solution being composed of pure ethanol. Therefore, the ABTS test was made in comparison with Trolox®. The same ranges from 10 nm to 1 mM of indoles 1a, 1c, 1g, 1i, 2a, 4c, 2g, 2h and 2i were tested.

| Structure (SMILES) | IF/neurone (%) (fluorescence intensity per neurone) [1] | Neuritic length/TH+ neuron, % relative to control ± SEM [2] [%] | TH+ neurons, % relative to control ± SEM [3] [%] | IC50 [4] [µM] |
| --- | --- | --- | --- | --- |
| CCCCCCCCCCCCCCCC(=O)NCCc1c[nH]c2ccccc12 [Compound 1c, N-(2-(1H-indol-3-yl)ethyl)hexadecanamide] | 55.9 ± 3.0 | 168.6 ± 11.5 | 121.3 ± 3.2 |  |
| CCCCCCCCCCCCCCCCCCCC(=O)NCCc1c[nH]c2ccccc12 [Compound 1f, N-(2-(1H-indol-3-yl)ethyl)icosanamide] |  | 147.4 ± 7.0 | 121.8 ± 2.0 |  |
| O=C(CCCCCCCCCCCCCCO)NCCc1c[nH]c2ccccc12 [Compound 1i, N-(2-(1H-indol-3-yl)ethyl)-15-hydroxypentadecanamide] | 56.5 ± 2.7 |  |  |  |
| CCCCCCCCCCCCCNCCc1c[nH]c2ccccc12 [Compound 2a, N-(2-(1H-indol-3-yl)ethyl)tridecan-1-amine] |  |  |  | 810 ± 140 |
| CCCCCCCCCCCCCCCCCCNCCc1c[nH]c2ccccc12 [Compound 2e, N-(2-(1H-indol-3-yl)ethyl)octadecan-1-amine] |  | 157.3 ± 10.3 | 129.9 ± 3.5 |  |
| CCCCCCCCCCCCCCCCCCCCNCCc1c[nH]c2ccccc12 [Compound 2f] |  | 132.6 ± 6.2 | 128.9 ± 3.4 |  |
| CCCCCCCCCCCCCCCCCCCCCCCNCCc1c[nH]c2ccccc12 [Compound 2g, N-(2-(1 H-indol-3-yl)ethyl)tricosan-1-amine] |  | 141.2 ± 5.0 | 129.6 ± 3.5 | 670 |
| OCCCCCCCCCCCCCCCNCCc1c[nH]c2ccccc12 [Compound 2i, N-(2-(1H-indol-3-yl)ethyl)-15-hydroxypentadecanamine] | 44.0 ± 3.6 | 160.8 ± 13.8 | 129.4 ± 5.0 | 730 ± 10 |
| Cc1c(C)c2c(c(C)c1O)CCC(C)(C(=O)O)O2 (stereo not shown) [Trolox ®, reference compound] | 44.0 ± 2.8 |  |  | 550 ± 20 |
| CCCC(=O)Nc1ncnc2c1ncn2[C@@H]1O[C@@H]2COP(=O)(O)O[C@H]2[C@H]1OC(=O)CCC [db-AMPc, dibutyryl-AMP cyclic, reference compound] |  | 333.1 ± 8.7 | 149.9 ± 3.6 |  |
